Data published in patent US7192906B2, “Substituted pyrazole derivatives, production process thereof, and herbicide compositions containing the derivatives” (SDS Biotech K.K., priority 2001, dated 2007).

Tests used:
Format in all cases: in vivo
Scirpus juncoides = assay: Test Example 3 paddy field treatment; conditions: paddy field treatment, wettable powder, active ingredient 1 kg per hectare, 21st day after the dropping, index 0-5
How it was run: (§1)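 Weed seeds sown in puddled paddy soil under 4 cm water, with two-leaf Koshihikari rice transplanted; 10 days later a wettable powder was applied to the water surface at 1 kg active ingredient/ha. Scored 21 days after application on a 0–5 scale (0 = <10%, 5 = ≥90% herbicidal effect or phytotoxicity).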

Monochoria vaginalis = assay: Test Example 3 paddy field treatment; conditions: paddy field treatment, wettable powder, active ingredient 1 kg per hectare, 21st day after the dropping, index 0-5
How it was run: as §1

Ammannia multiflora = assay: Test Example 3 paddy field treatment; conditions: paddy field treatment, wettable powder, active ingredient 1 kg per hectare, 21st day after the dropping, index 0-5
How it was run: as §1

Echinochloa crusgalli = assay: Test Example 3 paddy field treatment; conditions: paddy field treatment, wettable powder, active ingredient 1 kg per hectare, 21st day after the dropping, index 0-5
How it was run: as §1

Chenopodium album [1] = assay: Test Example 2 upland soil treatment; conditions: Table 5, upland soil treatment, index 0-5
How it was run: (§2)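 Visual 0–5 grading of herbicidal effect or phytotoxicity, made 21 days after a single pre-emergence soil-surface application at 1 kg a.i./ha.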

Setaria viridis [2] = assay: Test Example 2 upland soil treatment; conditions: Table 5, upland soil treatment, index 0-5
How it was run: as §2

Digitaria adscendens [3] = assay: Test Example 2 upland soil treatment; conditions: Table 5, upland soil treatment, index 0-5
How it was run: as §2

Stellaria media [4] = assay: Test Example 2 upland soil treatment; conditions: Table 5, upland soil treatment, index 0-5
How it was run: as §2

Chenopodium album [5] = assay: Test Example 1 upland field foliage treatment; conditions: Table 4, upland field foliage treatment, index 0-5
How it was run: (§3)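 Scores are visual 0–5 ratings of herbicidal effect or crop injury (0: under 10%; 5: 90% or more) taken 21 days after treatment. Plants grew from seed in upland soil for 14 days, then foliage received the compound as a water-diluted wettable powder at 1 kg/ha active ingredient.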

Setaria viridis [6] = assay: Test Example 1 upland field foliage treatment; conditions: Table 4, upland field foliage treatment, index 0-5
How it was run: as §3

Digitaria adscendens [7] = assay: Test Example 1 upland field foliage treatment; conditions: Table 4, upland field foliage treatment, index 0-5
How it was run: as §3

Stellaria media [8] = assay: Test Example 1 upland field foliage treatment; conditions: Table 4, upland field foliage treatment, index 0-5
How it was run: as §3

soybean (Glycine max) [9] = assay: Test Example 2 upland soil treatment, crop phytotoxicity; conditions: Table 5, upland soil treatment, index 0-5
How it was run: as §2

[10] = tested on: wheat (Triticum aestivum); assay: as above; conditions: Table 5, upland soil treatment, index 0-5
How it was run: as §2

Rice (Oryza sativa) = assay: Test Example 3 paddy field treatment, crop phytotoxicity; conditions: paddy field treatment, transplanted rice Koshihikari, wettable powder, active ingredient 1 kg per hectare, 21st day after the dropping, index 0-5
How it was run: as §1

soybean (Glycine max) [11] = assay: Test Example 1 upland field foliage treatment, crop phytotoxicity; conditions: Table 4, upland field foliage treatment, index 0-5
How it was run: as §3

[12] = tested on: wheat (Triticum aestivum); assay: as above; conditions: Table 4, upland field foliage treatment, index 0-5
How it was run: as §3

Row | SMILES | Herbicidal activity SJ (Scirpus juncoides) | Herbicidal activity MV (Monochoria vaginalis) | Herbicidal activity AM (Ammannia multiflora) | Herbicidal activity EC (Echinochloa crusgalli) | Herbicidal activity CA: Chenopodium album (Chenopodium album [1]) | Herbicidal activity SV: Setaria viridis (Setaria viridis [2]) | Herbicidal activity DA: Digitaria adscendens (Digitaria adscendens [3]) | Herbicidal activity SM: Stellaria media (Stellaria media [4]) | Herbicidal activity CA: Chenopodium album (Chenopodium album [5]) | Herbicidal activity SV: Setaria viridis (Setaria viridis [6]) | Herbicidal activity DA: Digitaria adscendens (Digitaria adscendens [7]) | Herbicidal activity SM: Stellaria media (Stellaria media [8]) | Herbicidal activity (phytotoxicity) GM: Soybean (Glycine max) (soybean (Glycine max) [9]) | Herbicidal activity (phytotoxicity) TA: Wheat (Triticum aestivum) [10] | Herbicidal activity OS (phytotoxicity to rice) (Rice (Oryza sativa)) | Herbicidal activity (phytotoxicity) GM: Soybean (Glycine max) (soybean (Glycine max) [11]) | Herbicidal activity (phytotoxicity) TA: Wheat (Triticum aestivum) [12]
1 | CON=C(Cn1cc(C)c(-c2ccc(Cl)cc2)n1)C(N)=O [Compound 17] | 4 (herbicidal effect of not less than 70% and less than 90%, or phytotoxicity of 70% or more and less than 90%) | 5 (herbicidal effect of not less than 90%, or phytotoxicity of 90% or more) | 5 (herbicidal effect of not less than 90%, or phytotoxicity of 90% or more) | 4 (herbicidal effect of not less than 70% and less than 90%, or phytotoxicity of 70% or more and less than 90%) | 4 (herbicidal effect of not less than 70% and less than 90%, or phytotoxicity of 70% or more and less than 90%) | 4 (herbicidal effect of not less than 70% and less than 90%, or phytotoxicity of 70% or more and less than 90%) | 4 (herbicidal effect of not less than 70% and less than 90%, or phytotoxicity of 70% or more and less than 90%) | 4 (herbicidal effect of not less than 70% and less than 90%, or phytotoxicity of 70% or more and less than 90%) | 5 (herbicidal effect of not less than 90%, or phytotoxicity of 90% or more) | 5 (herbicidal effect of not less than 90%, or phytotoxicity of 90% or more) | 5 (herbicidal effect of not less than 90%, or phytotoxicity of 90% or more) | 5 (herbicidal effect of not less than 90%, or phytotoxicity of 90% or more) | 0 (herbicidal effect of not less than 0% and less than 10%, or phytotoxicity of 0% or more and less than 10%) | 0 (herbicidal effect of not less than 0% and less than 10%, or phytotoxicity of 0% or more and less than 10%) | 0 (herbicidal effect of not less than 0% and less than 10%, or phytotoxicity of 0% or more and less than 10%) | 0 (herbicidal effect of not less than 0% and less than 10%, or phytotoxicity of 0% or more and less than 10%) | 0 (herbicidal effect of not less than 0% and less than 10%, or phytotoxicity of 0% or more and less than 10%)
2 | CNC(=O)C(Cn1cc(C)c(-c2ccccc2)n1)=NOC [Compound 18] | 5 (herbicidal effect of not less than 90%, or phytotoxicity of 90% or more) | 5 (herbicidal effect of not less than 90%, or phytotoxicity of 90% or more) | 5 (herbicidal effect of not less than 90%, or phytotoxicity of 90% or more) | 5 (herbicidal effect of not less than 90%, or phytotoxicity of 90% or more) | 5 (herbicidal effect of not less than 90%, or phytotoxicity of 90% or more) | 5 (herbicidal effect of not less than 90%, or phytotoxicity of 90% or more) | 5 (herbicidal effect of not less than 90%, or phytotoxicity of 90% or more) | 5 (herbicidal effect of not less than 90%, or phytotoxicity of 90% or more) | 5 (herbicidal effect of not less than 90%, or phytotoxicity of 90% or more) | 5 (herbicidal effect of not less than 90%, or phytotoxicity of 90% or more) | 5 (herbicidal effect of not less than 90%, or phytotoxicity of 90% or more) | 5 (herbicidal effect of not less than 90%, or phytotoxicity of 90% or more) | 0 (herbicidal effect of not less than 0% and less than 10%, or phytotoxicity of 0% or more and less than 10%) | 0 (herbicidal effect of not less than 0% and less than 10%, or phytotoxicity of 0% or more and less than 10%) | 0 (herbicidal effect of not less than 0% and less than 10%, or phytotoxicity of 0% or more and less than 10%) | 0 (herbicidal effect of not less than 0% and less than 10%, or phytotoxicity of 0% or more and less than 10%) | 0 (herbicidal effect of not less than 0% and less than 10%, or phytotoxicity of 0% or more and less than 10%)
3 | CCNC(=O)C(Cn1cc(C)c(-c2ccccc2)n1)=NOC [Compound 19] | 5 (herbicidal effect of not less than 90%, or phytotoxicity of 90% or more) | 5 (herbicidal effect of not less than 90%, or phytotoxicity of 90% or more) | 5 (herbicidal effect of not less than 90%, or phytotoxicity of 90% or more) | 5 (herbicidal effect of not less than 90%, or phytotoxicity of 90% or more) | 5 (herbicidal effect of not less than 90%, or phytotoxicity of 90% or more) | 5 (herbicidal effect of not less than 90%, or phytotoxicity of 90% or more) | 5 (herbicidal effect of not less than 90%, or phytotoxicity of 90% or more) | 5 (herbicidal effect of not less than 90%, or phytotoxicity of 90% or more) | 5 (herbicidal effect of not less than 90%, or phytotoxicity of 90% or more) | 5 (herbicidal effect of not less than 90%, or phytotoxicity of 90% or more) | 5 (herbicidal effect of not less than 90%, or phytotoxicity of 90% or more) | 5 (herbicidal effect of not less than 90%, or phytotoxicity of 90% or more) | 0 (herbicidal effect of not less than 0% and less than 10%, or phytotoxicity of 0% or more and less than 10%) | 0 (herbicidal effect of not less than 0% and less than 10%, or phytotoxicity of 0% or more and less than 10%) | 0 (herbicidal effect of not less than 0% and less than 10%, or phytotoxicity of 0% or more and less than 10%) | 0 (herbicidal effect of not less than 0% and less than 10%, or phytotoxicity of 0% or more and less than 10%) | 0 (herbicidal effect of not less than 0% and less than 10%, or phytotoxicity of 0% or more and less than 10%)
4 | CON=C(Cn1cc(C)c(-c2ccccc2)n1)C(=O)NC(C)C [Compound 20] | 4 (herbicidal effect of not less than 70% and less than 90%, or phytotoxicity of 70% or more and less than 90%) | 5 (herbicidal effect of not less than 90%, or phytotoxicity of 90% or more) | 4 (herbicidal effect of not less than 70% and less than 90%, or phytotoxicity of 70% or more and less than 90%) | 5 (herbicidal effect of not less than 90%, or phytotoxicity of 90% or more) | 3 (herbicidal effect of not less than 50% and less than 70%, or phytotoxicity of 50% or more and less than 70%) | 3 (herbicidal effect of not less than 50% and less than 70%, or phytotoxicity of 50% or more and less than 70%) | 4 (herbicidal effect of not less than 70% and less than 90%, or phytotoxicity of 70% or more and less than 90%) | 4 (herbicidal effect of not less than 70% and less than 90%, or phytotoxicity of 70% or more and less than 90%) | 5 (herbicidal effect of not less than 90%, or phytotoxicity of 90% or more) | 2 (herbicidal effect of not less than 30% and less than 50%, or phytotoxicity of 30% or more and less than 50%) | 3 (herbicidal effect of not less than 50% and less than 70%, or phytotoxicity of 50% or more and less than 70%) | 5 (herbicidal effect of not less than 90%, or phytotoxicity of 90% or more) | 0 (herbicidal effect of not less than 0% and less than 10%, or phytotoxicity of 0% or more and less than 10%) | 0 (herbicidal effect of not less than 0% and less than 10%, or phytotoxicity of 0% or more and less than 10%) | 0 (herbicidal effect of not less than 0% and less than 10%, or phytotoxicity of 0% or more and less than 10%) | 0 (herbicidal effect of not less than 0% and less than 10%, or phytotoxicity of 0% or more and less than 10%) | 0 (herbicidal effect of not less than 0% and less than 10%, or phytotoxicity of 0% or more and less than 10%)
